Earlier results, collected in patent US20160002278A1, “Pharmaceutical Compositions for Rectal Administration” (CIPLA LIMITED, priority 2013, published 2016).

Legend:
[1] = oral administration
[2] = animal study, distributed to other vital organs such as lungs

Question: What does the source list for CCc1c(Cl)c(O)c(Cl)c(O)c1C(=O)O[C@H]1[C@H](O)[C@H](OC)[C@H](OC/C2=C\C=C\C[C@H](O)/C(C)=C/[C@H](CC)[C@@H](O[C@@H]3OC(C)(C)[C@@H](OC(=O)C(C)C)[C@H](O)[C@@H]3O)/C(C)=C/C(C)=C/C[C@@H]([C@@H](C)O)OC2=O)O[C@@H]1C [Fidaxomicin]?
Answer: bioavailability (after oral administration): 1%; absorption from the gastrointestinal tract (following oral (PO) administration): minimally absorbed; adverse effects [1]: hives, difficulty in breathing, swelling of face, lips, tongue or throat; organ findings after oral administration [2]: dark red discoloration of the lungs and lymph nodes
